Literature values in patent US20040076968A1, “Method for detecting pre-disposition to hepatotoxicity” (priority 2000, published 2004).

Biological target: T1, UGT1A6*2 allelic variant (Homo sapiens, UniProt P19224, R184S/T181A)
T1 sequence (P19224 27-532 T181A/R184S): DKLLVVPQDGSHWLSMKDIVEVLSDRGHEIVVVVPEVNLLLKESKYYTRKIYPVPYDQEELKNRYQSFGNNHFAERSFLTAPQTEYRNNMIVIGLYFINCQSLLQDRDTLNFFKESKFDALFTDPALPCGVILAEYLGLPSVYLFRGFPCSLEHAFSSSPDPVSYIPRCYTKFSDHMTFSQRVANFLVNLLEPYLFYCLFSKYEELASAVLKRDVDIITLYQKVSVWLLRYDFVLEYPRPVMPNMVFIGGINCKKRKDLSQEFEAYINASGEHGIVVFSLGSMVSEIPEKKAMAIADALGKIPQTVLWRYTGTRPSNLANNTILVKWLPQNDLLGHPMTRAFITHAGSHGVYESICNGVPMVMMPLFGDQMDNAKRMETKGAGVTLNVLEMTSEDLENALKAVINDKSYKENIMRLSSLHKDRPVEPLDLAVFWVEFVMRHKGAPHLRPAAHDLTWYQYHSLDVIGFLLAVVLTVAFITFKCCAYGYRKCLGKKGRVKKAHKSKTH
Conditions: cited from earlier work; for metabolism compared with wild-type isoenzyme (in words): UGT1A6*2 expressed in COS cells

| SMILES | metabolism compared with wild-type isoenzyme (in words) | also measured |
| --- | --- | --- |
| Oc1cccc2ccccc12 [1-Naphtol] | normal levels | – |
| Oc1cccc(I)c1 [3iodophenol] | normal levels | – |
| Cc1cc(=O)oc2cc(O)ccc12 [7-hydroxy-4-methylcoumarin] | normal levels | – |
| O=c1ccc2ccc(O)cc2o1 [7-hydroxycoumarin] | normal levels | – |
| COc1ccc(O)c(C(C)(C)C)c1 [butylated hydroxy anisole] | – | rate of metabolism relative to the wild-type isoenzyme (pH 6.4): 27-75% |
| N[C@@H](Cc1ccc(O)c(O)c1)C(=O)O [levodopa] | – | activity of UGT1A6 alleles Thr181Ala and Arg184Ser for the substrate: reduced activity |
